Columns and labels:
Conditions in all cases: 48 h
NOMO1 [1] = experiment: cell viability relative to DMSO control; higher = less cytotoxic
Method in brief: (§1)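 Library compounds in DMSO were pin-dosed in an 11-point threefold series (47 μM to 0.79 nM) onto leukemia cells in 1536-well plates (5 μl). Plates held 500 cells/well of NOMO1 or SEM or 1000 cells/well of P12-Ichikawa, each adapted for at least four passages in each medium. Luminescence was read with CellTiter-Glo One after 48 h at 37°C. Viability means the per-plate percentage relative to DMSO wells, using cell-free wells as background.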

P12-Ichikawa [2] = experiment: as above
Method in brief: as §1

SEM cells [3] = experiment: as above
Method in brief: as §1

NOMO1 [4] = experiment: AUC of viability dose-response curve (% viability x log10 dose units); higher = less sensitive
Method in brief: (§2)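 Library compounds in DMSO were applied for 48 h at 37°C at 11 threefold doses (47 μM to 0.79 nM) to medium-adapted leukemia cells in 1536-well plates holding 500 or 1000 cells/well. Luminescence from CellTiter-Glo One was normalised plate by plate against DMSO and cell-free wells. Area under the curve came from trapezoidal integration of a log-logistic fit, after scaling curves that rose above full viability and discarding those that failed quality control. The fit had four parameters and used log10 doses.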

P12-Ichikawa [5] = experiment: as above
Method in brief: as §2

SEM cells [6] = experiment: as above
Method in brief: as §2

NC12CC3CC(CC(C3)C1)C2
cell viability [%]
Conditions	NOMO1 [1]	P12-Ichikawa [2]	SEM cells [3]
HPLM + 10% dialyzed FBS, 0.000781 µM	108	109	45.1
HPLM + 10% dialyzed FBS, 0.00234 µM	104	98.8	106
HPLM + 10% dialyzed FBS, 0.00702 µM	102	103	70.8
HPLM + 10% dialyzed FBS, 0.0211 µM	103	103	106
HPLM + 10% dialyzed FBS, 0.0632 µM	138	105	125
HPLM + 10% dialyzed FBS, 0.19 µM	121	111	114
HPLM + 10% dialyzed FBS, 0.569 µM	111	108	113
HPLM + 10% dialyzed FBS, 1.71 µM	106	103	124
HPLM + 10% dialyzed FBS, 5.12 µM	101	117	98.1
HPLM + 10% dialyzed FBS, 15.4 µM	96.4	114	123
HPLM + 10% dialyzed FBS, 46.1 µM	88.5	105	119
RPMI 5 mM glucose + 10% FBS, 0.000781 µM	102	102	42.3
RPMI 5 mM glucose + 10% FBS, 0.00234 µM	102	119	102
RPMI 5 mM glucose + 10% FBS, 0.00702 µM	102	118	70.6
RPMI 5 mM glucose + 10% FBS, 0.0211 µM	101	120	104
RPMI 5 mM glucose + 10% FBS, 0.0632 µM	97	119	109
RPMI 5 mM glucose + 10% FBS, 0.19 µM	108	123	109
RPMI 5 mM glucose + 10% FBS, 0.569 µM	98.2	112	102
RPMI 5 mM glucose + 10% FBS, 1.71 µM	94.5	113	107
RPMI 5 mM glucose + 10% FBS, 5.12 µM	99.1	110	89
RPMI 5 mM glucose + 10% FBS, 15.4 µM	98.5	109	110
RPMI 5 mM glucose + 10% FBS, 46.1 µM	104	107	104
RPMI 5 mM glucose + 10% dialyzed FBS, 0.000781 µM	95.3	104	33.7
RPMI 5 mM glucose + 10% dialyzed FBS, 0.00234 µM	95.8	113	96.5
RPMI 5 mM glucose + 10% dialyzed FBS, 0.00702 µM	108	109	71.4
RPMI 5 mM glucose + 10% dialyzed FBS, 0.0211 µM	97.8	111	108
RPMI 5 mM glucose + 10% dialyzed FBS, 0.0632 µM	93.1	115	114
RPMI 5 mM glucose + 10% dialyzed FBS, 0.19 µM	105	116	115
RPMI 5 mM glucose + 10% dialyzed FBS, 0.569 µM	103	115	112
RPMI 5 mM glucose + 10% dialyzed FBS, 1.71 µM	96	118	122
RPMI 5 mM glucose + 10% dialyzed FBS, 5.12 µM	88.3	115	110
RPMI 5 mM glucose + 10% dialyzed FBS, 15.4 µM	97	105	131
RPMI 5 mM glucose + 10% dialyzed FBS, 46.1 µM	81	103	107

AUC of viability dose-response curve
Conditions	NOMO1 [4]	P12-Ichikawa [5]	SEM cells [6]
HPLM + 10% dialyzed FBS	448	466	435
RPMI 5 mM glucose + 10% FBS	470	466	401
RPMI 5 mM glucose + 10% dialyzed FBS	461	476	371

C[C@H]([C@H]1C\C(=C(CO)/C(=O)O1)C)[C@H]2CC[C@H]3[C@@H]4C[C@H]5O[C@]56[C@@H](O)\C=C/C(=O)[C@]6(C)[C@H]4CC[C@]23C
Conditions	cell viability [%]
NOMO1 [1], RPMI 5 mM glucose + 10% FBS, 0.000781 µM	133
NOMO1 [1], RPMI 5 mM glucose + 10% FBS, 0.00234 µM	123
NOMO1 [1], RPMI 5 mM glucose + 10% FBS, 0.00702 µM	122
NOMO1 [1], RPMI 5 mM glucose + 10% FBS, 0.0211 µM	128
NOMO1 [1], RPMI 5 mM glucose + 10% FBS, 0.0632 µM	119
NOMO1 [1], RPMI 5 mM glucose + 10% FBS, 0.19 µM	115
NOMO1 [1], RPMI 5 mM glucose + 10% FBS, 0.569 µM	28.6
NOMO1 [1], RPMI 5 mM glucose + 10% FBS, 1.71 µM	20.5
NOMO1 [1], RPMI 5 mM glucose + 10% FBS, 5.12 µM	9.85
NOMO1 [1], RPMI 5 mM glucose + 10% FBS, 15.4 µM	6.35
NOMO1 [1], RPMI 5 mM glucose + 10% FBS, 46.1 µM	3.75
P12-Ichikawa [2], HPLM + 10% dialyzed FBS, 0.000781 µM	126
P12-Ichikawa [2], HPLM + 10% dialyzed FBS, 0.00234 µM	124
P12-Ichikawa [2], HPLM + 10% dialyzed FBS, 0.00702 µM	123
P12-Ichikawa [2], HPLM + 10% dialyzed FBS, 0.0211 µM	129
P12-Ichikawa [2], HPLM + 10% dialyzed FBS, 0.0632 µM	121
P12-Ichikawa [2], HPLM + 10% dialyzed FBS, 0.19 µM	100
P12-Ichikawa [2], HPLM + 10% dialyzed FBS, 0.569 µM	11.3
P12-Ichikawa [2], HPLM + 10% dialyzed FBS, 1.71 µM	7.84
P12-Ichikawa [2], HPLM + 10% dialyzed FBS, 5.12 µM	5.43
P12-Ichikawa [2], HPLM + 10% dialyzed FBS, 15.4 µM	3.44
P12-Ichikawa [2], HPLM + 10% dialyzed FBS, 46.1 µM	1.95

AUC of viability dose-response curve
Conditions	NOMO1 [4]	P12-Ichikawa [5]	SEM cells [6]
HPLM + 10% dialyzed FBS	271	263	259
RPMI 5 mM glucose + 10% FBS	283	258	253
RPMI 5 mM glucose + 10% dialyzed FBS	286	261	260

— the supplement of paper PMC11451515
